Assay results reported in patent US7323447B2, “Hepatitis C virus inhibitors” (Bristol-Myers Squibb Company, priority 2005, dated 2008).
Like-named read-outs stand apart in the source and are kept apart here.

Assays:
[1] = system: HCV replicon in HUH-7 cells; test: HCV replicon FRET assay; type: cell-based, Hepatitis C virus (strain 1b); conditions: Table 1
Description: An HCV replicon whole cell system was established as described by Lohmann V, Korner F, Koch J, Herian U, Theilmann L, Bartenschlager R., Science 285(5424): 110-3 (1999). This system enabled us to evaluate the effects of our HCV Protease compounds on HCV RNA replication. Briefly, using the HCV strain 1b sequence described in the Lohmann paper (Assession number: AJ238799), an HCV cDNA was synthesized by Operon Technologies, Inc. (Alameda, Calif.), and the full-length replicon was then assembled in plasmid pGem9zf(+) (Promega, Madison, Wis.) using standard molecular biology techniques. The replicon consists of (i) the HCV 5′ UTR fused to the first 12 amino acids of the capsid protein, (ii) the neomycin phosphotransferase gene (neo), (iii) the IRES from encephalomyocarditis virus (EMCV), and (iv) HCV NS3 to NS5B genes and the HCV 3′ UTR. Plasmid DNAs were linearized with ScaI and RNA transcripts were synthesized in vitro using the T7 MegaScript transcription kit (Ambion, Austin, Tex.) according to manufacturer's directions. In vitro transcripts of the cDNA were transfected into the human hepatoma cell line, HUH-7. […] Resulting cell lines were characterized for positive and negative strand RNA production and protein production over time.
The HCV replicon FRET assay was developed to monitor the inhibitory effects of compounds described in the disclosure on HCV viral replication. HUH-7 cells, constitutively expressing the HCV replicon, were grown in Dulbecco's Modified Eagle Media (DMEM) (Gibco-BRL) containing 10% Fetal calf serum (FCS) (Sigma) and 1 mg/ml G418 (Gibco-BRL). Cells were seeded the night before (1.5×10^4 cells/well) in 96-well tissue-culture sterile plates. Compound and no compound controls were prepared in DMEM containing 4% FCS, 1:100 Penicillin/Streptomysin (Gibco-BRL), 1:100 L-glutamine and 5% DMSO in the dilution plate (0.5% DMSO final concentration in the assay). Compound/DMSO mixes were added to the cells and incubated for 4 days at 37° C. After 4 days, cells were first assessed for cytotoxicity using alamar Blue (Trek Diagnotstic Systems) for a CC50 reading. The toxicity of compound (CC50) was determined by adding 1/10th volume of alamarBlue to the media incubating the cells. After 4 h, the fluorescence signal from each well was read, with an excitation wavelength at 530 nm and an emission wavelength of 580 nm, using the Cytofluor Series 4000 (Perspective Biosystems). Plates were then rinsed thoroughly with Phosphate-Buffered Saline (PBS) (3 times 150 μl). The cells were lysed with 25 μl of a lysis assay reagent containing an HCV protease substrate (5× cell Luciferase cell culture lysis reagent (Promega #E153A) diluted to 1× with distilled water, NaCl added to 150 mM final, the FRET peptide substrate (as described for the enzyme assay above) diluted to 10 μM final from a 2 mM stock in 100% DMSO. The plate was then placed into the Cytofluor 4000 instrument which had been set to 340 nm excitation/490 nm emissions, automatic mode for 21 cycles and the plate read in a kinetic mode. EC50 determinations were carried out as described for the IC50 determinations.

[2] = target: T1, HCV NS3/4A protease complex (BMS strain) (UniProt P27958); test: FRET peptide assay to monitor HCV NS3/4A proteolytic activity, BMS strain; type: biochemical, Hepatitis C virus (genotype 1a); conditions: read-out: IC50 Range; HCV NS3/4A enzyme assay; Table 1
T1 construct: other: HCV NS3/4A enzyme assay; said of H77 and J4L6S; fused on or other part: Three-lysine solubilising tail at the NS4A C-terminus and a His tag from pET21b (Ni-NTA purification), for the H77 and J4L6S constructs
Description: HCV NS3 protease complexes, derived from the BMS strain, H77 strain or J4L6S strain, were generated, as described below. These purified recombinant proteins were generated for use in a homogeneous assay (see below) to provide an indication of how effective compounds of the present disclosure would be in inhibiting HCV NS3 proteolytic activity.
Serum from an HCV-infected patient was obtained from Dr. T. Wright, San Francisco Hospital. An engineered full-length cDNA (compliment deoxyribonucleic acid) template of the HCV genome (BMS strain) was constructed from DNA fragments obtained by reverse transcription-PCR (RT-PCR) of serum RNA (ribonucleic acid) and using primers selected on the basis of homology between other genotype 1a strains. From the determination of the entire genome sequence, a genotype 1a was assigned to the HCV isolate according to the classification of Simmonds et al. (See P Simmonds, K A Rose, S Graham, S W Chan, F McOmish, B C Dow, E A Follett, P L Yap and […] Marsden, J. Clin. Microbiol., 31(6), 1493-1503 (1993)). […] The infectious clones, H77 (1a genotype) and J4L6S (1b genotype) were obtained from R. Purcell (NIH) and the sequences are published in Genbank (AAB67036, see Yanagi, M., Purcell, R. H., Emerson, S. U. and Bukh, J. Proc. Natl. Acad. Sci. U.S.A. 94(16), 8738-8743 (1997); AF054247, see Yanagi, M., St Claire, M., Shapiro, M., Emerson, S. U., Purcell, R. H. and Bukh, J, Virology 244 (1), 161-172. (1998)).
NS3/4A protease complex-containing fractions were pooled and loaded on a desalting column Superdex-S200 pre-equilibrated with buffer D (25 mM HEPES, pH 7.5, 20% glycerol, 300 mM NaCl, 0.2% Triton X-100, 10 mM βME). Sample was loaded at a flow rate of 1 mL/min. NS3/4A protease complex-containing fractions were pooled and concentrated to approximately 0.5 mg/ml. The purity of the NS3/4A protease complexes, derived from the BMS, H77 and J4L6S strains, were judged to be greater than 90% by SDS-PAGE and mass spectrometry analyses. The enzyme was stored at −80° C., thawed on ice and diluted prior to use in assay buffer.
The purpose of this in vitro assay was to measure the inhibition of HCV NS3 protease complexes, derived from the BMS strain, H77 strain or J4L6S strain, as described above, by compounds of the present disclosure. This assay provides an indication of how effective compounds of the present disclosure would be in inhibiting HCV NS3 proteolytic activity.
In order to monitor HCV NS3/4A protease activity, an NS3/4A peptide substrate was used. The substrate was RET S1 (Resonance Energy Transfer Depsipeptide Substrate; AnaSpec, Inc. cat # 22991) (FRET peptide), described by Taliani et al. in Anal. Biochem. 240(2):60-67 (1996). The sequence of this peptide is loosely based on the NS4A/NS4B natural cleavage site for the HCV NS3 protease except there is an ester linkage rather than an amide bond at the cleavage site. The peptide also contains a fluorescence donor, EDANS, near one end of the peptide and an acceptor, DABCYL, near the other end. The fluorescence of the peptide is quenched by […] resonance energy transfer (RET) between the donor and the acceptor, but as the NS3 protease cleaves the peptide the products are released from RET quenching and the fluorescence of the donor becomes apparent.
The peptide substrate was incubated with one of the three recombinant NS3/4A protease complexes, in the absence or presence of a compound of the present disclosure. The inhibitory effects of a compound were determined by monitoring the formation of fluorescent reaction product in real time using a Cytofluor Series 4000.
Assay buffer: 50 mM HEPES, pH 7.5; 0.15 M NaCl; 0.1% Triton; 15% Glycerol; 10 mM βME. Substrate: 2 μM final concentration (from a 2 mM stock solution in DMSO stored at −20° C.). HCV NS3/4A protease type 1a (1b), 2-3 nM final concentration (from a 5 μM stock solution in 25 mM HEPES, pH 7.5, 20% glycerol, 300 mM NaCl, 0.2% Triton-X100, 10 mM βME). […]

[3] = Hepatitis C virus, Huh-7, read-out: EC50 Range, HCV replicon cell assay
[4] = read-out: EC50 Range, HCV replicon cell assay

T1 sequence (P27958 1027-1657, one chain of several): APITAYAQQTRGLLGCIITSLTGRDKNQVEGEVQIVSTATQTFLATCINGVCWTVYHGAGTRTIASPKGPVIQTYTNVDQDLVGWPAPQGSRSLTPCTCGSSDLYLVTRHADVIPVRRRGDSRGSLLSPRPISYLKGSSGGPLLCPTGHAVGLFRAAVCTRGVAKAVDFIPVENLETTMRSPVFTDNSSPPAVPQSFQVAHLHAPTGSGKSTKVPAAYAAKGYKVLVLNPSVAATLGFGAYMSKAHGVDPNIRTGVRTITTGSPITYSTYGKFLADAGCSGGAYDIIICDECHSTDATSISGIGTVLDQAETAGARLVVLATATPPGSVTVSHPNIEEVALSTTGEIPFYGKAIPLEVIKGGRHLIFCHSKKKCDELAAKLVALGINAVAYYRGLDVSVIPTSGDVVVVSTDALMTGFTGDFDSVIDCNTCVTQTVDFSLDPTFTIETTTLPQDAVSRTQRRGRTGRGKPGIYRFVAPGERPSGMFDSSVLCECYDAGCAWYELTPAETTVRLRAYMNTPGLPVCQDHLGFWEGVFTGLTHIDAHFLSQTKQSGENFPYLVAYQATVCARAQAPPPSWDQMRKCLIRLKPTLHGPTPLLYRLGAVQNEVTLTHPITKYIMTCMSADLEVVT

SMILES | EC50 [1, 3] [µM] | IC50 [2] [nM] | EC50 [1, 4] [µM]
C=C[C@@H]1C[C@]1(NC(=O)[C@@H]1C[C@@H](Oc2nccc3ccccc23)CN1C(=O)[C@@H](OC(=O)Nc1ccccc1OC)C(C)(C)C)C(=O)NS(=O)(=O)C1CC1 [Example 29] | 0.5 to 5 | 100 to 1000 | –
C=C[C@@H]1C[C@]1(NC(=O)[C@@H]1C[C@@H](Oc2nccc3ccccc23)CN1C(=O)[C@@H](OC(=O)Nc1ccc(F)cc1)C(C)(C)C)C(=O)NS(=O)(=O)C1CC1 [Example 30] | 0.5 to 5 | 100 to 1000 | –
C=C[C@@H]1C[C@]1(NC(=O)[C@@H]1C[C@@H](Oc2nccc3ccccc23)CN1C(=O)[C@@H](OC(=O)Nc1ccc(OC)cc1)C(C)(C)C)C(=O)NS(=O)(=O)C1CC1 [Example 31] | 0.5 to 5 | 100 to 1000 | –
C=C[C@@H]1C[C@]1(NC(=O)[C@@H]1C[C@@H](Oc2nccc3ccccc23)CN1C(=O)[C@@H](OC(=O)Nc1ccccc1C(C)C)C(C)(C)C)C(=O)NS(=O)(=O)C1CC1 [Example 32] | 0.5 to 5 | 100 to 1000 | –
C=C[C@@H]1C[C@]1(NC(=O)[C@@H]1C[C@@H](Oc2nccc3ccccc23)CN1C(=O)[C@@H](OC(=O)Nc1ccc(C(C)(C)C)cc1)C(C)(C)C)C(=O)NS(=O)(=O)C1CC1 [Example 33] | 0.5 to 5 | 100 to 1000 | –
C=C[C@@H]1C[C@]1(NC(=O)[C@@H]1C[C@@H](Oc2nccc3cc(OC)ccc23)CN1C(=O)[C@@H](O)C(C)C)C(=O)NS(=O)(=O)C1CC1 [Example 50Compound 50] | – | 100 to 1000 | 0.5 to 5
C=C[C@@H]1C[C@]1(NC(=O)[C@@H]1C[C@@H](Oc2nccc3cc(OC)ccc23)CN1C(=O)[C@@H](OC(=O)NC1CCCC1)C(C)C)C(=O)NS(=O)(=O)C1CC1 [Example 51Compound 51] | – | < 100 | 0.5 to 5
C=C[C@@H]1C[C@]1(NC(=O)[C@@H]1C[C@@H](Oc2nccc3cc(OC)ccc23)CN1C(=O)[C@@H](OC(=O)NC1(C(F)(F)F)CC1)C(C)C)C(=O)NS(=O)(=O)C1CC1 [Example 54Compound 54] | 0.5 to 5 | 100 to 1000 | –
C=C[C@@H]1C[C@]1(NC(=O)[C@@H]1C[C@@H](Oc2cc(-c3cccs3)cc(-c3ccccc3)n2)CN1C(=O)[C@@H](OC(=O)NC(C)(C)C)C(C)(C)C)C(=O)NS(=O)(=O)C1CC1 [Example 55Compound 55] | 0.5 to 5 | < 100 | –
C=C[C@@H]1C[C@]1(NC(=O)[C@@H]1C[C@@H](Oc2ncnc3ccccc23)CN1C(=O)[C@@H](OC(=O)NC(C)(C)C)C(C)(C)C)C(=O)NS(=O)(=O)C1CC1 [Example 57Compound 57] | 0.5 to 5 | 100 to 1000 | –
C=C[C@@H]1C[C@]1(NC(=O)[C@@H]1C[C@@H](Oc2nccc3cc(OC)ccc23)CN1C(=O)[C@@H](OC(=O)NC(C)(C)C)C(C)(C)C)C(=O)NS(=O)(=O)N(C)C [Example 58Compound 58] | 0.5 to 5 | < 100 | –
C=C[C@@H]1C[C@]1(NC(=O)[C@@H]1C[C@@H](Oc2nccc3cc(OC)ccc23)CN1C(=O)[C@@H](OC(=O)NC(C)(C)C)C(C)(C)C)C(=O)NS(=O)(=O)c1ccccc1 [Example 59Compound 59] | 0.5 to 5 | 100 to 1000 | –
C=C[C@@H]1C[C@]1(NC(=O)[C@@H]1C[C@@H](Oc2nccc3cc(OC)ccc23)CN1C(=O)[C@@H](OC(=O)NC(C)(C)C)C(C)(C)C)C(=O)NS(=O)(=O)c1cn(C)cn1 [Example 60Compound 60] | > 5 | > 1000 | –
C=C[C@@H]1C[C@]1(NC(=O)[C@@H]1C[C@@H](Oc2nc(-c3ccc(OC(F)(F)F)cc3)cc3cc(OC)ccc23)CN1C(=O)[C@@H](O)[C@@H](C)CC)C(=O)NS(=O)(=O)C1CC1 [Example 61Compound 61] | 0.5 to 5 | 100 to 1000 | –
C=C[C@@H]1C[C@]1(NC(=O)[C@@H]1C[C@@H](Oc2nc(-c3ccc(OC(F)(F)F)cc3)cc3cc(OC)ccc23)CN1C(=O)[C@@H](O)C1CCCCC1)C(=O)NS(=O)(=O)C1CC1 [Example 62Compound 62] | 0.5 to 5 | 100 to 1000 | –
C=C[C@@H]1C[C@]1(NC(=O)[C@@H]1C[C@@H](Oc2nc(-c3ccc(OC(F)(F)F)cc3)cc3cc(OC)ccc23)CN1C(=O)[C@@H](O)C(C)(C)COC)C(=O)NS(=O)(=O)C1CC1 [Example 63Compound 63] | 0.5 to 5 | < 100 | –
